“Also recorded” adds a separate entry of the source.
What was measured:
[1] = target: T1, soybean lipoxygenase (LOX) (Glycine max, UniProt P08170); experiment: In vitro inhibition of soybean lipoxygenase, UV-absorbance-based enzyme assay; assay type: biochemical; conditions: for IC50 / LOX IC50: soybean lipoxygenase, sodium linoleate, Tris buffer pH 9
T1 construct: purchased Sigma Chemical, Co. (St. Louis, MO, USA)
T1 sequence (P08170 1-839): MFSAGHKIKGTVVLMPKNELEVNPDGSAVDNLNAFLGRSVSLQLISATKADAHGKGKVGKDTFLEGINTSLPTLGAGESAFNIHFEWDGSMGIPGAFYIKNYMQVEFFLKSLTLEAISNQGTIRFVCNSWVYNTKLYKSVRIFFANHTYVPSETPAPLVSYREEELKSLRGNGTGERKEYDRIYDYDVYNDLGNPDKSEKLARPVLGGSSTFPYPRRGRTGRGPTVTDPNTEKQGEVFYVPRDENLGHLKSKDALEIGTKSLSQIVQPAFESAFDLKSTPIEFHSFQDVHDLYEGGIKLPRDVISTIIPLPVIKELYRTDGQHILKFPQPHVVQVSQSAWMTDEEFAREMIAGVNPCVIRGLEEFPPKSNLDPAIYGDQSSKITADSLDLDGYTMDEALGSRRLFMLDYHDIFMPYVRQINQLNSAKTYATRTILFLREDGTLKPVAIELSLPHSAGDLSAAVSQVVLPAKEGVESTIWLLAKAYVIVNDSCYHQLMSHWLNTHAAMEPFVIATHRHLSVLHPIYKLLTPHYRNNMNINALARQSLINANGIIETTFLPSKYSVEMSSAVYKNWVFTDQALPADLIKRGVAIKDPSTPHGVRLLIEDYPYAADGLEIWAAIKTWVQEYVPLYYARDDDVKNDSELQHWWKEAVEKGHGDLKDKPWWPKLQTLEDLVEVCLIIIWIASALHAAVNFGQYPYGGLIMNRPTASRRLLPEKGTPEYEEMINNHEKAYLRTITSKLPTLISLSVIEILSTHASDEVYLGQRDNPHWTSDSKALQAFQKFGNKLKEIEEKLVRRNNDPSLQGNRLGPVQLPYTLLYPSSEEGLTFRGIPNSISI
Experimental: The tested compounds dissolved in DMSO were incubated at room temperature with sodium linoleate (100 µL) and 200 µL of enzyme solution (1/9 × 10^−4 w/v in saline) in Tris buffer pH 9. The conversion of sodium linoleate to 13-hydroperoxylinoleic acid at 234 nm was recorded and compared with the appropriate standard inhibitor.

[2] = Reducing activity of the DPPH stable free radical (RA%); conditions: DPPH 0.05 mM in ethanol; for RA%, 50 μM, 20 min / RA%, 50 μM, 60 min: compound 50 μM; for RA%, 100 µM, 20 min: compound 100 µM; for RA%, 100 μM, 60 min: compound 100 μM
Excerpt: It is well known that the interaction of the synthesized 3-acetyl-4-hydroxycoumarin N-acylhydrazones 2 with the stable free radical DPPH indicates their radical scavenging ability in an iron-free system. […] Considering the antioxidant activity of 3-acetyl-4-hydroxy coumarin (1) it seems to be higher than the hydrazone derivatives 2a–l in both concentrations and in relation with the time and it is correlated with the presence of 3-acetyl and 4-hydroxy groups in the lactone ring and the possibility of tautomers (A–D) formation as shown in Scheme 2. It has been reported that 3-acetyl-4-hydroxycoumarin mainly exists in endocyclic enol form (B) in polar solvents (methanol, ethanol) and it is well known that enols show antioxidant activity e.g., it has been reported that enolic and phenolic hydroxyl groups is beneficial for curcumin to protect erythrocytes against hemin-induced hemolysis and to protect DNA against AAPH-induced oxidation. The lower results of hydrazones 2a–l, are correlated with their stereochemistry which influence their interaction with DPPH.
To an ethanolic solution of DPPH (0.05 mM) in absolute ethanol the new coumarin derivatives dissolved in DMSO were added (final concentration 50 and 100 µM). The mixture was shaken vigorously and allowed to stand for 20 min or 60 min; absorbance at 517 nm was determined spectrophotometrically against the blank and the percentage of reducing activity (RA) was calculated by the formula: RA% = [(A0 − A1)/A0] × 100 where A0 is the absorbance of blank and A1 is the absorbance of the reaction mixture.

[3] = Inhibition of linoleic acid lipid peroxidation induced by AAPH; conditions: pH 7.4, 37 °C
Excerpt: AAPH induced linoleic acid oxidation is based on the inhibition of lipid oxidation and provides a measure of how efficiently antioxidants protect against lipid oxidation in vitro. Oxidation of exogenous linoleic acid by a thermal free radical producer (AAPH) is followed by UV spectrophotometry in a highly-diluted sample [36, 42].
Production of conjugated diene hydroperoxide by oxidation of linoleic acid in an aqueous dispersion is monitored at 234 nm. 2,2′-Azobis(2-amidinopropane) dihydrochloride (AAPH) is used as a free radical initiator. Ten microliters of the 16 mM linoleic acid sodium salt solution was added to the UV cuvette containing 930 µL of […] phosphate buffer, pH 7.4 prethermostated at 37 °C. The oxidation reaction was initiated at 37 °C under air by the addition of 50 μL of 40 mM AAPH solution. Oxidation was carried out in the presence of aliquots (10 μL) of the tested coumarins. In the assay without antioxidant, lipid peroxidation was measured in the presence of the same level of DMSO. The rate of oxidation at 37 °C was monitored by recording the increase in absorption at 234 nm caused by conjugated diene hydroperoxides.

[4] = parameters: method as in PMID 1322662; conditions: cited from earlier work

SMILES | IC50 [1] [µM] | RA%, 50 μM, 20 min [2] [%] | RA%, 50 μM, 60 min [2] [%] | RA%, 100 µM, 20 min [2] [%] | RA%, 100 μM, 60 min [2] [%] | melting point [°C] | LP 60 s, 100 μM (% inhibition of LP induced by AAPH) [3] [%] | LOX IC50 [1] | antioxidant activity [4] | inhibition at 100 µM [1] [%] | LOX % inhibition ([1]; 100 µM, IC50 not determined)
CC(=O)NN=C(C)c1c(O)c2ccccc2oc1=O [2a, 3-[N-(Acetylhydrazono)ethyl]-4-hydroxycoumarin] | 62.5 ± 2.3 | 5 ± 0.2 | 7 ± 0.3 | 23 ± 3.0 | 24 ± 2.0 | 248 to 249 | 100 ± 9.8 | – | – | – | –
CC(=NNC(=O)Cc1ccccc1)c1c(O)c2ccccc2oc1=O [2b, 3-[N-(Phenylacetylhydrazono)ethyl]-4-hydroxycoumarin] | 40 ± 0.5 | 4 ± 0.2 | 7 ± 0.1 | 25 ± 2.0 | 29 ± 1.1 | 216 to 217 | 100 ± 5.5 | – | – | – | –
CC(=NNC(=O)c1ccccc1)c1c(O)c2ccccc2oc1=O [2c, 3-[N-(Benzoylhydrazono)ethyl]-4-hydroxycoumarin] | 58 ± 2.7 | 5 ± 0.1 | 7 ± 0.4 | 25 ± 1.2 | 30 ± 2.8 | – | 98 ± 5.4 | – | – | – | –
CC(=NNC(=O)c1ccc(C)cc1)c1c(O)c2ccccc2oc1=O [2d, 3-{N-[(4′-Methylbenzoyl)hydrazono]ethyl}-4-hydroxycoumarin] | – | 7 ± 0.3 | 10 ± 0.2 | 27 ± 2.2 | 27 ± 1.4 | 251 to 252 | 100 ± 3.2 | do not seem to present any activity; also recorded: No ^c | – | – | –
CC(=NNC(=O)c1ccc(Cl)cc1)c1c(O)c2ccccc2oc1=O [2e, 3-{N-[(4′-Chlorobenzoyl)hydrazono]ethyl}-4-hydroxycoumarin] | 55 ± 2.1 | 7 ± 0.2 | 10 ± 0.5 | 27 ± 0.9 | 29 ± 0.8 | 248 to 248.5 | 94 ± 4.8 | – | – | – | –
CC(=NNC(=O)c1ccc(O)cc1)c1c(O)c2ccccc2oc1=O [2f, 3-{N-[(4′-Hydroxybenzoyl)hydrazono]ethyl}-4-hydroxycoumarin] | 70 ± 4.3 | 10 ± 0.5 | 14 ± 1.2 | 24 ± 2.2 | 26 ± 1.2 | 287 to 288 | 98 ± 2.9 | – | – | – | –
CC(=NNC(=O)c1ccc(N)cc1)c1c(O)c2ccccc2oc1=O [2g, 3-{N-[(4′-Aminobenzoyl)hydrazono]ethyl}-4-hydroxycoumarin] | 46.5 ± 2.3 | 9 ± 0.3 | 16 ± 0.6 | 27 ± 0.8 | 31 ± 1.4 | 256 to 257 | 95 ± 7.2 | – | – | – | –
CC(=NNC(=O)c1ccncc1)c1c(O)c2ccccc2oc1=O [2h, 3-[N-(Isonicotinoylhydrazono)ethyl]-4-hydroxycoumarin] | – | 5 ± 0.1 | 8 ± 0.2 | 27 ± 1.5 | 31 ± 1.6 | 274 | 99 ± 3.7 | do not seem to present any activity; also recorded: No ^c | – | – | –
CC(=NNC(=O)c1ccccc1O)c1c(O)c2ccccc2oc1=O [2i, 3-{N-[(2′-Hydroxybenzoyl)hydrazono]ethyl}-4-hydroxycoumarin] | 49.5 ± 1.2 | 8 ± 0.5 | 10 ± 0.1 | 27 ± 0.2 | 29 ± 1.7 | 271 to 272 | 100 ± 8.2 | – | – | – | –
CC(=NNC(=O)c1ccco1)c1c(O)c2ccccc2oc1=O [2j, 3-{N-[(2′-Furoyl)hydrazono]ethyl}-4-hydroxycoumarin] | 90 ± 5.1 | 4 ± 0.2 | 8 ± 0.3 | 25 ± 1.8 | 27 ± 0.8 | 254.5 to 255 | 95 ± 4.1 | – | – | – | –
CC(=NNC(=O)c1cccs1)c1c(O)c2ccccc2oc1=O [2k, 3-{N-[(2′-Thienylcarbonyl)hydrazono]ethyl}-4-hydroxycoumarin] | 43.5 ± 3.2 | 7 ± 0.1 | 9 ± 0.2 | 25 ± 2.1 | 30 ± 2.2 | 228 to 228.5 | 98 ± 3.9 | – | – | – | –
CC(=NNC(=O)c1ccccc1[N+](=O)[O-])c1c(O)c2ccccc2oc1=O [2l, 3-{N-[(2′-Nitrobenzoyl)hydrazono]ethyl}-4-hydroxycoumarin] | 35 ± 0.2 | 6 ± 0.3 | 10 ± 0.2 | 27 ± 2.2 | 29 ± 1.0 | 219 | 95 ± 6.2 | – | – | – | –
O=c1cc(O)c2ccccc2o1 [4-hydroxy coumarin] | – | – | – | – | – | – | – | – | not found to present any antioxidant activity | – | –
CC(Cc1ccc(O)c(O)c1)C(C)Cc1ccc(O)c(O)c1 (centres unmarked) [NDGA, nordihydroguairetic acid, reference compound] | – | 84 ± 2.0 | 83 ± 3.3 | 81 ± 5.2 | 83 ± 4.7 | – | – | – | – | – | –
Cc1c(C)c2c(c(C)c1O)CCC(C)(C(=O)O)O2 (centres unmarked) [TROLOX, trolox, reference compound] | – | – | – | – | – | – | 63 ± 0.2 | – | – | – | –
CC(=O)c1c(O)c2ccccc2oc1=O [compound 1, 3-Acetyl-4-hydroxycoumarin] | – | 29 ± 0.5 | 31± 0.3 | 36± 1.3 | 36 ± 0.8 | – | – | – | – | 44 | low inhibitory activity

Source: article PMC6273125, “Antioxidant Activity of 3-[N-(Acylhydrazono)ethyl]-4-hydroxy-coumarins” (Molecules, 2016)
